Tested on: IGROV1 complex spheroids (HUVEC, MSC), viability % test/control
Assay: Anticancer human tumor IGROV1 cell line growth inhibition [GQUAD];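 further: spheroids exposed to compounds for 7 days before readout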;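 on viability, T/C: 100% = DMSO vehicle control viability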
Settings: for IC50: curve of first compound; for viability, T/C: stronger effect = lower value
In short: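 Tumor cells were grown as complex spheroids with HUVEC endothelial cells and mesenchymal stem cells as stroma. G-quadruplex stabilizers were combined with targeted agents over half-log dilutions from near the clinical Cmax, or from 10 microM.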

[1] = second compound 0.0316 µM, first compound 0.0316 µM
[2] = second compound 0.0316 µM, first compound 0.1 µM
[3] = second compound 0.0316 µM, first compound 0.316 µM
[4] = second compound 0.0316 µM, first compound 1 µM
[5] = second compound 0.0316 µM, first compound 3.16 µM
[6] = second compound 0.0316 µM, first compound 10 µM
[7] = second compound 0.1 µM, first compound 0.0316 µM
[8] = second compound 0.1 µM, first compound 0.1 µM
[9] = second compound 0.1 µM, first compound 0.316 µM
[10] = second compound 0.1 µM, first compound 1 µM
[11] = second compound 0.1 µM, first compound 3.16 µM
[12] = second compound 0.1 µM, first compound 10 µM
[13] = second compound 0.316 µM, first compound 0.0316 µM
[14] = second compound 0.316 µM, first compound 0.1 µM
[15] = second compound 0.316 µM, first compound 0.316 µM
[16] = second compound 0.316 µM, first compound 1 µM
[17] = second compound 0.316 µM, first compound 3.16 µM
[18] = second compound 0.316 µM, first compound 10 µM
[19] = second compound 1 µM, first compound 0.0316 µM
[20] = second compound 1 µM, first compound 0.1 µM
[21] = second compound 1 µM, first compound 0.316 µM
[22] = second compound 1 µM, first compound 1 µM
[23] = second compound 1 µM, first compound 3.16 µM
[24] = second compound 1 µM, first compound 10 µM
[25] = second compound 3.16 µM, first compound 0.0316 µM
[26] = second compound 3.16 µM, first compound 0.1 µM
[27] = second compound 3.16 µM, first compound 0.316 µM
[28] = second compound 3.16 µM, first compound 1 µM
[29] = second compound 3.16 µM, first compound 3.16 µM
[30] = second compound 3.16 µM, first compound 10 µM
[31] = second compound 10 µM, first compound 0.0316 µM
[32] = second compound 10 µM, first compound 0.1 µM
[33] = second compound 10 µM, first compound 0.316 µM
[34] = second compound 10 µM, first compound 1 µM
[35] = second compound 10 µM, first compound 3.16 µM
[36] = second compound 10 µM, first compound 10 µM

`CCCS(=O)(=O)Nc1ccc(F)c(C(=O)c2c[nH]c3ncc(-c4ccc(Cl)cc4)cc23)c1F` + Cc1[nH]c2ccc(F)cc2c1-c1nc2c3cccnc3c3ncccc3c2[nH]1 was tested, and the IC50 (second compound 0.0316 µM) was 4760 nM, the IC50 (second compound 0.1 µM) was 5340 nM and the IC50 (second compound 0.316 µM) was 1390 nM. It also gave an IC50 (second compound 1 µM) of under 31.6 nM, an IC50 (second compound 3.16 µM) of under 31.6 nM and an IC50 (second compound 10 µM) of under 31.6 nM. The viability, T/C [1] was 97.9%, the viability, T/C [2] was 95.9% and the viability, T/C [3] was 98.4%. The viability, T/C [4] was 59.4%, the viability, T/C [5] was 80.5% and the viability, T/C [6] was 19.3%. For the same molecule, the viability, T/C [7] was 104%, the viability, T/C [8] was 91.6% and the viability, T/C [9] was 77.5%. The viability, T/C [10] was 64.8%, the viability, T/C [11] was 82.1% and the viability, T/C [12] was 11.7%. The viability, T/C [13] was 86.6%, the viability, T/C [14] was 81.1% and the viability, T/C [15] was 81.4%. It also gave a viability, T/C [16] of 53.2%, a viability, T/C [17] of 32.3% and a viability, T/C [18] of 2.23%. It also gave a viability, T/C [19] of 4.32%, a viability, T/C [20] of 3.48% and a viability, T/C [21] of 3.41%. It also gave a viability, T/C [22] of 3.93%, a viability, T/C [23] of 4.28% and a viability, T/C [24] of 3%. It also gave a viability, T/C [25] of 3.26%, a viability, T/C [26] of 3.6% and a viability, T/C [27] of 3.61%. For the same molecule, the viability, T/C [28] was 3.81%, the viability, T/C [29] was 3.5% and the viability, T/C [30] was 2.72%. It also gave a viability, T/C [31] of 3.29%, a viability, T/C [32] of 3.66% and a viability, T/C [33] of 4.63%. It also gave a viability, T/C [34] of 3.69%, a viability, T/C [35] of 3.96% and a viability, T/C [36] of 2.93%.

`Cc1[nH]c2ccccc2c1CCNCc1ccc(/C=C/C(=O)NO)cc1` + Cc1[nH]c2ccc(F)cc2c1-c1nc2c3cccnc3c3ncccc3c2[nH]1 showed an IC50 (second compound 0.0316 µM) of 22.8 nM, an IC50 (second compound 0.1 µM) of 17.6 nM and an IC50 (second compound 0.316 µM) of 10.6 nM. For the same molecule, the IC50 (second compound 1 µM) was under 0.999 nM, the IC50 (second compound 3.16 µM) was under 0.999 nM and the IC50 (second compound 10 µM) was under 0.999 nM. The viability, T/C (second compound 0.0316 µM, first compound 0.000999 µM) was 107%, the viability, T/C (second compound 0.0316 µM, first compound 0.00316 µM) was 88.2% and the viability, T/C (second compound 0.0316 µM, first compound 0.00999 µM) was 80%. The viability, T/C [1] was 40.3%, the viability, T/C (second compound 0.0316 µM, first compound 0.0999 µM) was 4.14% and the viability, T/C [3] was 0.24%. For the same molecule, the viability, T/C (second compound 0.1 µM, first compound 0.000999 µM) was 91.8%, the viability, T/C (second compound 0.1 µM, first compound 0.00316 µM) was 102% and the viability, T/C (second compound 0.1 µM, first compound 0.00999 µM) was 64.4%. For the same molecule, the viability, T/C [7] was 32.3%, the viability, T/C (second compound 0.1 µM, first compound 0.0999 µM) was 5.9% and the viability, T/C [9] was 0.36%. The viability, T/C (second compound 0.316 µM, first compound 0.000999 µM) was 61.7%, the viability, T/C (second compound 0.316 µM, first compound 0.00316 µM) was 67.6% and the viability, T/C (second compound 0.316 µM, first compound 0.00999 µM) was 48.2%. The viability, T/C [13] was 28.6%, the viability, T/C (second compound 0.316 µM, first compound 0.0999 µM) was 5.96% and the viability, T/C [15] was 0.21%. For the same molecule, the viability, T/C (second compound 1 µM, first compound 0.000999 µM) was 3.99%, the viability, T/C (second compound 1 µM, first compound 0.00316 µM) was 3.36% and the viability, T/C (second compound 1 µM, first compound 0.00999 µM) was 2.02%. It also gave a viability, T/C [19] of 2.26%, a viability, T/C (second compound 1 µM, first compound 0.0999 µM) of 2.15% and a viability, T/C [21] of 0.14%. For the same molecule, the viability, T/C (second compound 3.16 µM, first compound 0.000999 µM) was 2.38%, the viability, T/C (second compound 3.16 µM, first compound 0.00316 µM) was 2.86% and the viability, T/C (second compound 3.16 µM, first compound 0.00999 µM) was 1.81%. The viability, T/C [25] was 1.14%, the viability, T/C (second compound 3.16 µM, first compound 0.0999 µM) was 0.49% and the viability, T/C [27] was 0.09%. It also gave a viability, T/C (second compound 10 µM, first compound 0.000999 µM) of 3.6%, a viability, T/C (second compound 10 µM, first compound 0.00316 µM) of 3.82% and a viability, T/C (second compound 10 µM, first compound 0.00999 µM) of 2.17%. For the same molecule, the viability, T/C [31] was 1.25%, the viability, T/C (second compound 10 µM, first compound 0.0999 µM) was 0.54% and the viability, T/C [33] was 0.17%.

`O=C(NO)c1cnc(N2CCN(S(=O)(=O)c3ccc4ccccc4c3)CC2)nc1` + Cc1[nH]c2ccc(F)cc2c1-c1nc2c3cccnc3c3ncccc3c2[nH]1 gave an IC50 (second compound 0.0316 µM) of 98.9 nM, an IC50 (second compound 0.1 µM) of 96.2 nM and an IC50 (second compound 0.316 µM) of 81.9 nM. For the same molecule, the IC50 (second compound 1 µM) was under 31.6 nM, the IC50 (second compound 3.16 µM) was under 31.6 nM and the IC50 (second compound 10 µM) was under 31.6 nM. It also gave a viability, T/C [1] of 87.3%, a viability, T/C [2] of 49.5% and a viability, T/C [3] of 12.1%. For the same molecule, the viability, T/C [4] was 0.35%, the viability, T/C [5] was 0.04% and the viability, T/C [6] was 0.07%. It also gave a viability, T/C [7] of 91.5%, a viability, T/C [8] of 47.7% and a viability, T/C [9] of 20.1%. It also gave a viability, T/C [10] of 0.3%, a viability, T/C [11] of 0.05% and a viability, T/C [12] of 0.06%. It also gave a viability, T/C [13] of 91.3%, a viability, T/C [14] of 40.6% and a viability, T/C [15] of 17.2%. The viability, T/C [16] was 0.3%, the viability, T/C [17] was 0.04% and the viability, T/C [18] was 0.05%. The viability, T/C [19] was 2.48%, the viability, T/C [20] was 1.93% and the viability, T/C [21] was 2.47%. The viability, T/C [22] was 0.07%, the viability, T/C [23] was 0.03% and the viability, T/C [24] was 0.05%. For the same molecule, the viability, T/C [25] was 1.55%, the viability, T/C [26] was 1.3% and the viability, T/C [27] was 0.5%. The viability, T/C [28] was 0.04%, the viability, T/C [29] was 0.05% and the viability, T/C [30] was 0.07%. The viability, T/C [31] was 1.75%, the viability, T/C [32] was 1.33% and the viability, T/C [33] was 0.92%. It also gave a viability, T/C [34] of 0.07%, a viability, T/C [35] of 0.11% and a viability, T/C [36] of 0.1%.

— PubChem BioAssay AID2060486 (Molecular Pharmacology Branch, DTP, NCI, 2025)
